According to PMC3961306, “Comparison of the Cancer Gene Targeting and Biochemical Selectivities of All Targeted Kinase Inhibitors Approved for Clinical Use” (PLoS ONE, 2014):

What was measured:
Test in all cases: Kinase profiling in a biochemical assay panel (mobility shift assays and ELISA), %-inhibition at 1 μM; selectivity entropy
[1] = biological target: panel of more than 300 wild-type and mutant kinases (313 kinase panel) (Homo sapiens, UniProt Q9UBS0)
[2] = biological target: panel of more than 300 wild-type and mutant kinases (313 kinase panel) (Homo sapiens, UniProt P36507)
[3] = biological target: T1, panel of more than 300 wild-type and mutant kinases (313 kinase panel) (Homo sapiens, UniProt Q9NRM7)
T1 sequence (Q9NRM7 1-1088): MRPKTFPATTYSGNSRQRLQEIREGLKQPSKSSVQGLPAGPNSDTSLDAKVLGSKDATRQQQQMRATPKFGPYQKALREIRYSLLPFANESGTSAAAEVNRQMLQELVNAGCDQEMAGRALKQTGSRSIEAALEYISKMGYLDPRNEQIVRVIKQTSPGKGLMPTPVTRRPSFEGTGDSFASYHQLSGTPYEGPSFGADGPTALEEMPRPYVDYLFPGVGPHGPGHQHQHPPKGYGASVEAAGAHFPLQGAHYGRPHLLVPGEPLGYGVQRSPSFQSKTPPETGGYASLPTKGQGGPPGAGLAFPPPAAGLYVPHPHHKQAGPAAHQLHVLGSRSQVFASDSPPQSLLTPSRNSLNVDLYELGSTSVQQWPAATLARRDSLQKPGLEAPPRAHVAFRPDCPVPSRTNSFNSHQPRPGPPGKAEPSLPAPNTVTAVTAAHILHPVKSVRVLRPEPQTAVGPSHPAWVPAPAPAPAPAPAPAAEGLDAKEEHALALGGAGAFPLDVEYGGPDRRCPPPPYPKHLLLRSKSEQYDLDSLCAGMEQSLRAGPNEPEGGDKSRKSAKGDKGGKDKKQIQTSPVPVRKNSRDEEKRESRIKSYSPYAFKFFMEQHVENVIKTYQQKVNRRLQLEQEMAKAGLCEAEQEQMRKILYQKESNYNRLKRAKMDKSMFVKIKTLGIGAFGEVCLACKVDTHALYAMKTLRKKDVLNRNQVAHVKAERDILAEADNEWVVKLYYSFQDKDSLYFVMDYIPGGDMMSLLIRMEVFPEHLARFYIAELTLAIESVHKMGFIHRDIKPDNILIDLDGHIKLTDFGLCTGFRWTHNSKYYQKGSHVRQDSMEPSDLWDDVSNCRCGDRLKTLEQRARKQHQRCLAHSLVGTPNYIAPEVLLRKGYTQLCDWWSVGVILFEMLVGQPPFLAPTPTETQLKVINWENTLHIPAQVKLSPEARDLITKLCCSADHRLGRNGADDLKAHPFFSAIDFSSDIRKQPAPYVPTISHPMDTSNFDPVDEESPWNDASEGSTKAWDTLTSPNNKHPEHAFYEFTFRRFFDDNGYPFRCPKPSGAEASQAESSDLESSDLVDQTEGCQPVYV

[4] = biological target: T2, panel of more than 300 wild-type and mutant kinases (313 kinase panel) (Homo sapiens, UniProt Q9Y2U5)
T2 sequence (Q9Y2U5 1-619): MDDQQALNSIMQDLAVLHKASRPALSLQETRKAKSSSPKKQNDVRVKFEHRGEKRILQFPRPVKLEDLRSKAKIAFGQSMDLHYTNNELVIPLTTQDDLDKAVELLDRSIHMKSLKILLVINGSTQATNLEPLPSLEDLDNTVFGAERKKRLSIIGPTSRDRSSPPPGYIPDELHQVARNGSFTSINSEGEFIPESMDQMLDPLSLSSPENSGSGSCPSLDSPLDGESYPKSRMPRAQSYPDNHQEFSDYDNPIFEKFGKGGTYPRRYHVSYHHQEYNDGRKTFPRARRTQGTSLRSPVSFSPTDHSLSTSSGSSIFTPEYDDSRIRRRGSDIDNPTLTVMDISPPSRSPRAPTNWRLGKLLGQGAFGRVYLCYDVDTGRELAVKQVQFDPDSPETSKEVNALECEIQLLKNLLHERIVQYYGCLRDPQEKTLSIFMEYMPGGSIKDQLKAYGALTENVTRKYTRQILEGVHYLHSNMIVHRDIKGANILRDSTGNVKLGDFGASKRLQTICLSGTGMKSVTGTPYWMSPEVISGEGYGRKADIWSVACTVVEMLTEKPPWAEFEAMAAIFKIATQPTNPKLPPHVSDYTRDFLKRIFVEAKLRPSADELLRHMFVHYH

[5] = biological target: T3, panel of more than 300 wild-type and mutant kinases (313 kinase panel) (Homo sapiens, UniProt Q96PN8)
T3 sequence (Q96PN8 1-268): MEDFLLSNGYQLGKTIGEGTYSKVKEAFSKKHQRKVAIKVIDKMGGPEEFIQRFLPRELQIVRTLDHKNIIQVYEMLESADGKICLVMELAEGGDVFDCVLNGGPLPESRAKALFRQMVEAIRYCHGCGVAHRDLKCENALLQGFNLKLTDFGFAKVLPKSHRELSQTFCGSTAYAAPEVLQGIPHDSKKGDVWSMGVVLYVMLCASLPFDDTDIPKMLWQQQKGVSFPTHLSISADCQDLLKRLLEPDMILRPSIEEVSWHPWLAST

[6] = kinase MAP2K2, compound at 1 μM
[7] = kinase MAP3K2, compound at 1 μM

Compound | %-inhibition of p70S6Kβ ([1]; kinase p70S6Kβ, 1 μM) | %-inhibition of MAP2K2 ([2]; 1 µM) | %-inhibition of LATS2 ([3]; kinase LATS2, compound at 1 μM) | %-inhibition of MAP3K2 ([4]; 1 µM) | %-inhibition of TSSK3 ([5]; kinase TSSK3, compound at 1 μM) | %-inhibition of MAP2K2 [2, 6] | %-inhibition of MAP3K2 [4, 7] | %-inhibition of LATS2 ([3]; 1 µM) | %-inhibition of p70S6Kβ ([1]; 1 µM) | %-inhibition of TSSK3 ([5]; 1 µM)
CN(C)C/C=C/C(=O)Nc1cc2c(Nc3ccc(F)c(Cl)c3)ncnc2cc1O[C@H]1CCOC1 [afatinib] | 3.42% |  |  |  |  |  |  |  |  | 
COc1cc(Nc2c(C#N)cnc3cc(OCCCN4CCN(C)CC4)c(OC)cc23)c(Cl)cc1Cl [bosutinib] |  | 96% | 28% | 93% | -2% |  |  |  |  | 
COc1cc2nccc(Oc3ccc(NC(=O)C4(C(=O)Nc5ccc(F)cc5)CC4)cc3)c2cc1OC [cabozantinib] | -3.52% |  | -5.61% |  | -1.06% | 61% | 9% |  |  | 
C[C@@H](Oc1cc(-c2cnn(C3CCNCC3)c2)cnc1N)c1c(Cl)ccc(F)c1Cl [crizotinib] | 6% |  | -6% |  | -0.601% | 13% |  |  |  | 
CC(C)(C)c1nc(-c2cccc(NS(=O)(=O)c3c(F)cccc3F)c2F)c(-c2ccnc(N)n2)s1 [dabrafenib] | -0.554% |  | 0.57% |  | -8% |  | 71% |  |  | 
Cc1nc(Nc2ncc(C(=O)Nc3c(C)cccc3Cl)s2)cc(N2CCN(CCO)CC2)n1 [dasatinib] |  |  | -7% |  | -2.69% |  |  |  |  | 
C#Cc1cccc(Nc2ncnc3cc(OCCOC)c(OCCOC)cc23)c1 [erlotinib] |  | 8% |  | 14% |  |  |  | -8% | 13% | -7%
CO[C@H]1C[C@@H]2CC[C@@H](C)[C@@](O)(O2)C(=O)C(=O)N2CCCC[C@H]2C(=O)O[C@H]([C@H](C)C[C@@H]2CC[C@@H](OCCO)[C@H](OC)C2)CC(=O)[C@H](C)/C=C(\C)[C@@H](O)[C@@H](OC)C(=O)[C@H](C)C[C@H](C)/C=C/C=C/C=C/1C [everolimus] | -11% |  | -13% |  | -3% | 11% | 7.56% |  |  | 
O=S(=O)(c1cccc2cnccc12)N1CCCNCC1 [fasudil] | 37% |  | 22% |  | -6% | 13% | -15% |  |  | 
CS(=O)(=O)CCNCc1ccc(-c2ccc3ncnc(Nc4ccc(OCc5cccc(F)c5)c(Cl)c4)c3c2)o1 [lapatinib] | 8% |  | -8% |  | 0.192% | 6% | 5.6% |  |  | 
Cc1cn(-c2cc(NC(=O)c3ccc(C)c(Nc4nccc(-c5cccnc5)n4)c3)cc(C(F)(F)F)c2)cn1 [nilotinib] | -3.7% |  | -72% |  | 12% | -12% | -26% |  |  | 
Cc1ccc(Nc2nccc(N(C)c3ccc4c(C)n(C)nc4c3)n2)cc1S(N)(=O)=O [pazopanib] | 1.69% |  | -0.465% |  | 4.41% | 1.87% | 46% |  |  | 
Cc1ccc(C(=O)Nc2ccc(CN3CCN(C)CC3)c(C(F)(F)F)c2)cc1C#Cc1cnc2cccnn12 [ponatinib] | 78% |  | 16% |  | -4.67% |  | 79% |  |  | 
CNC(=O)c1cc(Oc2ccc(NC(=O)Nc3ccc(Cl)c(C(F)(F)F)c3)c(F)c2)ccn1 [regorafenib] | 1.41% |  | -9.47% |  | -4.39% | 16% | 19% |  |  | 
N#CC[C@H](C1CCCC1)n1cc(-c2ncnc3[nH]ccc23)cn1 [ruxolitinib] | 11% |  | 37% | 75% | -3% | 12% |  |  |  | 
CO[C@H]1C[C@@H]2CC[C@@H](C)[C@@](O)(O2)C(=O)C(=O)N2CCCC[C@H]2C(=O)O[C@H]([C@H](C)C[C@@H]2CC[C@@H](OC(=O)C(C)(CO)CO)[C@H](OC)C2)CC(=O)[C@H](C)/C=C(\C)[C@@H](O)[C@@H](OC)C(=O)[C@H](C)C[C@H](C)/C=C/C=C/C=C/1C [temsirolimus] | -7% |  | -4.56% |  | -2.63% | 13% | 5.58% |  |  | 
CC(=O)Nc1cccc(-n2c(=O)n(C3CC3)c(=O)c3c(Nc4ccc(I)cc4F)n(C)c(=O)c(C)c32)c1 [trametinib] | -1% |  | 1.87% |  | -8% |  | 0.801% |  |  | 
COc1cc2c(Nc3ccc(Br)cc3F)ncnc2cc1OCC1CCN(C)CC1 [vandetanib] | 2.58% |  | -8% |  | -2.54% |  | 14% |  |  | 
CCCS(=O)(=O)Nc1ccc(F)c(C(=O)c2c[nH]c3ncc(-c4ccc(Cl)cc4)cc23)c1F [vemurafenib] | 0.235% |  | -2.28% |  | -3.19% | 30% | 21% |  |  | 
